IC50 data for 27 compounds are collected here from patent US9206128B2 (Constellation Pharmaceuticals, Inc., priority 2011, dated 2015).

Each structure is given as a SMILES string.

For test [1], the target named is EZH2 (Homo sapiens, UniProt Q15910). The experiment in a line: EZH2 activity inhibition assay (rPRC2, 3H SAM, biotinylated oligonucleosomes, FlashPlate). Type of test: biochemical. Particulars: rPRC2, 2 nM EZH2, 0.2 μM 3H SAM, top concentration 80 μM. Here is the method: (§1) EZH2 Assay: Assays were carried out by mixing rPRC2 together with biotinylated oligonucleosome substrates in the presence of the radio-labeled enzyme co-factor, S-adenosyl-L-methionine (^3H SAM) (Perkin Elmer) and monitoring the enzymatically mediated transfer of tritiated methyl groups from ^3H SAM to histone lysine residues. The amount of resulting tritiated methyl histone product was measured by first capturing the biotinylated oligonucleosomes in streptavidin (SAV) coated FlashPlates (Perkin Elmer), followed by a wash step to remove un-reacted ^3H SAM, and then counting on a TopCount NXT 384 well plate scintillation counter (Perkin Elmer).
Sequence of EZH2 (Q15910 whole entry): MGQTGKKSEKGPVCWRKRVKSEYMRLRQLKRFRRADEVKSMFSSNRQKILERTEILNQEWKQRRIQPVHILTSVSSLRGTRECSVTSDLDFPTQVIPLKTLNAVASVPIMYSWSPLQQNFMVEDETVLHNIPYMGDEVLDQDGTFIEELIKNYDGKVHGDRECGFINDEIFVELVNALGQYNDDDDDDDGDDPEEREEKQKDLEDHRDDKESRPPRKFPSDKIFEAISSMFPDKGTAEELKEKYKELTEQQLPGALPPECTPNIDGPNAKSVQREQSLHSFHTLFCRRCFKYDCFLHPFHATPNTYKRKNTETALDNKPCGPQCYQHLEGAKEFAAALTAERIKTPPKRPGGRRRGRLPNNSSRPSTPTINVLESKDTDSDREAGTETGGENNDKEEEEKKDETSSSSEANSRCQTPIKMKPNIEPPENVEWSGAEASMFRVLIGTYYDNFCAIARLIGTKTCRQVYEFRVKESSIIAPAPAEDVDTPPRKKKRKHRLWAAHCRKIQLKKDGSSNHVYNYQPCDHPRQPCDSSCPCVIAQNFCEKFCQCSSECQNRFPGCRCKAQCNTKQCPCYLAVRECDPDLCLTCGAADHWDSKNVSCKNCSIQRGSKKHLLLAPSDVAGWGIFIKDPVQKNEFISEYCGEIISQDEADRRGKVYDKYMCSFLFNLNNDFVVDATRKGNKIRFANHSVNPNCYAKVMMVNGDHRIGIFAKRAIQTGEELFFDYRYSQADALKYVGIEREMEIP
Sequence of EZH2 (O75530 whole entry partner): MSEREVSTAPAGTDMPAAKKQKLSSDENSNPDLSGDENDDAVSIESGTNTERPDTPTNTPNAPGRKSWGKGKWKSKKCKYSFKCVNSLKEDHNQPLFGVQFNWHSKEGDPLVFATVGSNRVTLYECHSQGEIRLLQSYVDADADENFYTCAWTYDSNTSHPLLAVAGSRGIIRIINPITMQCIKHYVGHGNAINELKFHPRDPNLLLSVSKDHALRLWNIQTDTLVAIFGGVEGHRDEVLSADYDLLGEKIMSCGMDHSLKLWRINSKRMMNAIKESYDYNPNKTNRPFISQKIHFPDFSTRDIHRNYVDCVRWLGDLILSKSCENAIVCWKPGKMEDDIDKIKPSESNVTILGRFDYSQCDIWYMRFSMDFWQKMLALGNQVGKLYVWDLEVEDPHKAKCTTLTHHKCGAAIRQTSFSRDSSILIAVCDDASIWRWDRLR
Sequence of EZH2 (Q15022 whole entry partner): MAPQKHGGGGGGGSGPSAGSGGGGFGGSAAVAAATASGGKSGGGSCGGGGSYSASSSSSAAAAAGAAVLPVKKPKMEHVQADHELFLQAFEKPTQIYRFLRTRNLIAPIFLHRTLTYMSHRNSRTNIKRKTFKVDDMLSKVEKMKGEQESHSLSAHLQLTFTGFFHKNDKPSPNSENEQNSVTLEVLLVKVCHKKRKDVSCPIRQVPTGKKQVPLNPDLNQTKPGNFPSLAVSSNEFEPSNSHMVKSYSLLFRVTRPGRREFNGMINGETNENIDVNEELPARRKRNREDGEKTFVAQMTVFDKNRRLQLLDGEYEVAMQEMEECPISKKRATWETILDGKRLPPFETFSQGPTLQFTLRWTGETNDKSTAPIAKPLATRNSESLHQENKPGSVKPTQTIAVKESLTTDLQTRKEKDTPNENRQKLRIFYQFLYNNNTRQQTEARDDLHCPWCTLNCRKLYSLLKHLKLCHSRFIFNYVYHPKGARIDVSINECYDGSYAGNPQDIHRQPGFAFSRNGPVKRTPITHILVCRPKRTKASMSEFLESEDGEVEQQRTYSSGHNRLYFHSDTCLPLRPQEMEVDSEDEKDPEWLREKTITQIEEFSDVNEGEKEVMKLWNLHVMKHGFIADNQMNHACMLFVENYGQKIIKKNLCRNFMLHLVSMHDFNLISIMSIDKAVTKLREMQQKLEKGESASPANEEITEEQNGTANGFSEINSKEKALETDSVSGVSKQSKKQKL
A 12.5 μL volume of the HMT enzyme, H3K27me3 peptide and oligonucleosome substrate in assay buffer was added to each well of the assay plate using a Multidrop Combi (ThermoFisher). Compounds were pre-incubated with the enzyme for 20 min, followed by initiation of the methyltransferase reaction by addition of 12.5 μL of 3H SAM in assay buffer (final volume=25 μL). […] Stopped reactions were transferred to SAV coated Flashplates (Perkin Elmer), incubated for 120 min, washed with a plate washer, and then read on the TopCount NXT (1.0 min/well) to measure the amount of methyl histone product formed during the reaction.

For test [2], the target named is Y641N EZH2 (Homo sapiens, UniProt Q15910, Y641N). The experiment in a line: Y641N EZH2 activity inhibition assay (as EZH2 assay, reconstituted H3K27Me2 oligonucleosomes as substrate). To be noted: Y641N EZH2 mutant enzyme. Type of test: biochemical. The protocol: as §1, with “Elmer). The final assay conditions for EZH2 were as follows: 50 mM Tris Buffer pH 8.5, 1 mM DTT, 69 μM Brij-35 detergent, 5.0 mM MgCl2, 0.1 mg/mL BSA, 0.2 μM ^3H SAM, 0.2 μM biotinylated oligonucleosomes, 3.6 μM H3K27me3 peptide and 2 nM EZH2.” for “Elmer).”
Sequence of Y641N EZH2 (Q15910 whole entry Y641N): as the sequence (Q15910 whole entry) above, with Y641N counted along it
Sequence of Y641N EZH2 (O75530 whole entry partner): as the sequence (O75530 whole entry partner) above
Sequence of Y641N EZH2 (Q15022 whole entry partner): as the sequence (Q15022 whole entry partner) above
A 12.5 μL volume of the HMT enzyme, H3K27me3 peptide and oligonucleosome substrate in assay buffer was added to each well of the assay plate using a Multidrop Combi (ThermoFisher). Compounds were pre-incubated with the enzyme for 20 min, followed by initiation of the methyltransferase reaction by addition of 12.5 μL of 3H SAM in assay buffer (final volume=25 μL). The final concentrations of compounds ranged from a top default concentration of 80 μM down to 0.16 μM in ten 2-fold dilution steps. Reactions were carried out for 60 minutes and quenched with 20 μL per well of 1.96 mM SAH, 50 mM Tris PH 8.5, 200 mM EDTA. Stopped reactions were transferred to SAV coated Flashplates (Perkin Elmer), incubated for 120 min, washed with a plate washer, and then read on the TopCount NXT (1.0 min/well) to measure the amount of methyl histone product formed during the reaction.

As to `Cc1cc(C)c(CNC(=O)c2ccc(C(C)Oc3cccc(F)c3)cc2)c(=O)[nH]1` (centres unmarked) [Compound I-42, 4-(1-(3-fluorophenoxy)ethyl)-N-((2-hydroxy-4,6-dimethylpyridin-3-yl)methyl)benzamide], the IC50 in test [1] and in test [2] was below 1 µM throughout. With `Cc1cc(C)c(CNC(=O)c2ccc(Oc3cccc(-c4cn[nH]c4)c3C#N)c(Cl)c2)c(=O)[nH]1` [Compound I-5, 3-chloro-4-(2-cyano-3-(1H-pyrazol-4-yl)phenoxy)-N-((2-hydroxy-4,6-dimethylpyridin-3-yl)methyl)benzamide], the IC50 (as a rule, the concentration at which inhibition is half-maximal) in test [1] fell in the range of 1 to 10 µM. In the case of `Cc1cc(C)c(CNC(=O)c2ccc(CN3CCCCC3)cc2C)c(=O)[nH]1` [Compound I-80, N-((2-hydroxy-4,6-dimethylpyridin-3-yl)methyl)-2-methyl-4-(piperidin-1-ylmethyl)benzamide], the results for the IC50 in test [1] and in test [2] were 1 to 10 µM and 10 to 50 µM, respectively. On the same counts, the results for `Cc1cc(C)c(CNC(=O)c2ccc(CN(C)c3ccccc3)cc2)c(=O)[nH]1` [Compound I-36, N-((2-hydroxy-4,6-dimethylpyridin-3-yl)methyl)-4-((methyl(phenyl)amino)methyl)benzamide] are 10 to 50 µM and above 80 µM. On the same counts, the results for `Cc1cc(C)c(CNC(=O)c2ccc([S+]([O-])c3ccccc3)cc2)c(=O)[nH]1` (centres unmarked) [Compound I-29, N-((2-hydroxy-4,6-dimethylpyridin-3-yl)methyl)-4-(phenylsulfinyl)benzamide] are 10 to 50 µM and above 80 µM.

In the case of `Cc1cc(C)c(CNC(=O)c2ccc(C(C)OC3CCOCC3)cc2)c(=O)[nH]1` (centres unmarked) [Compound I-192], the IC50 was below 1 µM in test [1] and 1 to 10 µM in test [2]. For `CCC(Oc1ccccc1)c1ccc(C(=O)NCc2c(C)cc(C)[nH]c2=O)cc1` (centres unmarked) [Compound I-44, N-((2-hydroxy-4,6-dimethylpyridin-3-yl)methyl)-4-(1-phenoxypropyl)benzamide], the IC50 in test [1] and in test [2] was below 1 µM in each case.

On to `Cc1cc(C)c(CNC(=O)c2ccc(Cc3ccccc3)cc2)c(=O)[nH]1` [Compound I-34, 4-benzyl-N-((2-hydroxy-4,6-dimethylpyridin-3-yl)methyl)benzamide], for which the 50% inhibitory concentration (IC50) in test [1] was below 1 µM; in test [2] it was 1 to 10 µM.

For `Cc1cc(C)c(CNC(=O)c2ccc(C(C)N3CCCCC3)cc2)c(=O)[nH]1` (centres unmarked) [Compound I-81], the concentration for half-maximal inhibition (IC50) in test [1] was 1 to 10 µM; in test [2] it was 10 to 50 µM. The like results for `Cc1cc(C)c(CNC(=O)c2ccc(CN3CCN(CCO)CC3)cc2)c(=O)[nH]1` [Compound I-89, N-((4,6-dimethyl-2-oxo-1,2-dihydropyridin-3-yl)methyl)-4-((4-(2-hydroxyethyl)piperazin-1-yl)methyl)benzamide] were, in that order, 1 to 10 µM and above 80 µM.

In the case of `Cc1ccc(OC(C)c2ccc(C(=O)NCc3c(C)cc(C)[nH]c3=O)cc2)cc1` (centres unmarked) [Compound I-35, N-((2-hydroxy-4,6-dimethylpyridin-3-yl)methyl)-4-(1-(p-tolyloxy)ethyl)benzamide], the IC50 in test [1] was below 1 µM; in test [2], 1 to 10 µM. On the same counts, the results for `Cc1cc(C)c(CNC(=O)c2ccc(COc3ccccc3)cc2)c(=O)[nH]1` [Compound I-11, N-((2-hydroxy-4,6-dimethylpyridin-3-yl)methyl)-4-(phenoxymethyl)benzamide] are 1 to 10 µM and 1 to 10 µM. Take `Cc1cc(C)c(CNC(=O)c2ccc(C(CC(C)C)Oc3ccccc3)cc2)c(=O)[nH]1` (centres unmarked) [Compound I-49, N-((2-hydroxy-4,6-dimethylpyridin-3-yl)methyl)-4-(3-methyl-1-phenoxybutyl)benzamide]: the 50% inhibitory concentration (IC50) in test [1] and in test [2] was 10 to 50 µM throughout.

With `Cc1cc(C)c(CNC(=O)c2ccc(C(C)Oc3ccccc3)c(F)c2)c(=O)[nH]1` (single isomer, unassigned) [Compound I-161, (S)— or (R)-3-fluoro-N-((2-hydroxy-4,6-dimethylpyridin-3-yl)methyl)-4-(1-phenoxyethyl)benzamide], the IC50 in test [1] and in test [2] was below 1 µM throughout. For the compound `O=C(NCc1cc2c([nH]c1=O)CCCC2)c1ccc(Oc2ccccc2)cc1` [Compound I-179], the IC50 was above 50 µM in test [1] and above 80 µM in test [2]. On the same counts, the results for `Cc1cc(C)c(CNC(=O)c2ccc(CCc3ccccc3)cc2)c(=O)[nH]1` [Compound I-48, N-((2-hydroxy-4,6-dimethylpyridin-3-yl)methyl)-4-phenethylbenzamide] are 1 to 10 µM and above 80 µM. On to `Cc1cc(C)c(CNC(=O)c2ccc(C(CO)Oc3ccccc3)cc2)c(=O)[nH]1` (centres unmarked) [Compound I-183, 4-(2-hydroxy-1-phenoxyethyl)-N-((2-hydroxy-4,6-dimethylpyridin-3-yl)methyl)benzamide], for which the results for the IC50 in test [1] and in test [2] were 1 to 10 µM and above 80 µM, respectively. On the same counts, the results for `Cc1cc(C)c(CNC(=O)c2ccc(C3CCCC3)cc2)c(=O)[nH]1` [Compound I-86, 4-cyclopentyl-N-((2-hydroxy-4,6-dimethylpyridin-3-yl)methyl)benzamide] are below 1 µM and 1 to 10 µM.

In the case of `Cc1cc(C)c(CNC(=O)c2ccc(C(C)Oc3ccccc3F)cc2)c(=O)[nH]1` (centres unmarked) [Compound I-41, 4-(1-(2-fluorophenoxy)ethyl)-N-((2-hydroxy-4,6-dimethylpyridin-3-yl)methyl)benzamide], the IC50 in test [1] and in test [2] was below 1 µM each time. As for `Cc1cc(C)c(CNC(=O)c2ccc([C@@H](C)Oc3ccccc3)cc2C)c(=O)[nH]1` [Compound I-50], the IC50 in test [1] is 1 to 10 µM; in test [2] it was above 80 µM.

For `Cc1cc(C)c(CNC(=O)c2ccc(COc3ccccc3)cc2C)c(=O)[nH]1` [Compound I-27, N-((2-hydroxy-4,6-dimethylpyridin-3-yl)methyl)-2-methyl-4-(phenoxymethyl)benzamide], the IC50 is below 1 µM in test [1] and 1 to 10 µM in test [2].

On to `Cc1cc(C)c(CNC(=O)c2ccc(Oc3ccccc3)nn2)c(=O)[nH]1` [Compound I-158], for which the IC50 in test [1] and in test [2] was above 80 µM each time.

As for `Cc1cc(C)c(CNC(=O)c2ccc(Oc3ccccc3)nc2)c(=O)[nH]1` [Compound I-16], the IC50 fell in the range of 1 to 10 µM in test [1] and 10 to 50 µM in test [2]. `Cc1cc(C)c(CNC(=O)c2cnc(Oc3ccccc3)nc2)c(=O)[nH]1` [Compound I-79, N-((2-hydroxy-4,6-dimethylpyridin-3-yl)methyl)-2-phenoxypyrimidine-5-carboxamide]: the values for the IC50 in test [1] and in test [2] were 10 to 50 µM and above 80 µM, respectively. In turn, `Cc1cc(C)c(CNC(=O)c2ccc(Oc3ccccc3-c3ccncc3)c(Cl)c2)c(=O)[nH]1` [Compound I-7, 3-chloro-N-((2-hydroxy-4,6-dimethylpyridin-3-yl)methyl)-4-(2-(pyridin-4-yl)phenoxy)benzamide] displayed an IC50 in test [1] of 1 to 10 µM. Same read-out and setting: the result for `Cc1cc(C)c(CNC(=O)c2ccc(Oc3cccc(-c4ccncc4)c3C#N)c(Cl)c2)c(=O)[nH]1` [Compound I-6, 3-chloro-4-(2-cyano-3-(pyridin-4-yl)phenoxy)-N-((2-hydroxy-4,6-dimethylpyridin-3-yl)methyl)benzamide] reads 1 to 10 µM. Still for that read-out and setting: with `CCc1cccc(Oc2ccc(C(=O)NCc3c(C)cc(C)[nH]c3=O)cc2C)c1C#N` [Compound I-4, 4-(2-cyano-3-ethylphenoxy)-N-((2-hydroxy-4,6-dimethylpyridin-3-yl)methyl)-3-methylbenzamide] the figure was 1 to 10 µM.
